Measured values from ChEMBL document CHEMBL5678818, “Discovery of potent SOS1 inhibitors that block RAS activation via disruption of the RAS-SOS1 interaction” (Proc Natl Acad Sci U S A, 2019).

Tests used:
[1] = target: 1-phosphatidylinositol 3-phosphate 5-kinase (Homo sapiens) (UniProt Q9Y2I7); assay: Inhibition of PIKFYVE (unknown origin) assessed as residual activity at 1000 nM by KINOMEscan analysis relative to control
[2] = target: Serine/threonine-protein kinase 32A (Homo sapiens) (UniProt Q8WU08); assay: Inhibition of YANK1 (unknown origin) assessed as residual activity at 100 nM by KINOMEscan analysis relative to control
[3] = target: RAC-alpha serine/threonine-protein kinase (Homo sapiens) (UniProt P31749); assay: Inhibition of AKT1 (unknown origin) assessed as residual activity at 100 nM by KINOMEscan analysis relative to control
[4] = target: T1, Tyrosine-protein kinase Mer (Homo sapiens) (UniProt Q12866); assay: Inhibition of MERTK (unknown origin) assessed as residual activity at 100 nM by KINOMEscan analysis relative to control
T1 sequence (whole entry): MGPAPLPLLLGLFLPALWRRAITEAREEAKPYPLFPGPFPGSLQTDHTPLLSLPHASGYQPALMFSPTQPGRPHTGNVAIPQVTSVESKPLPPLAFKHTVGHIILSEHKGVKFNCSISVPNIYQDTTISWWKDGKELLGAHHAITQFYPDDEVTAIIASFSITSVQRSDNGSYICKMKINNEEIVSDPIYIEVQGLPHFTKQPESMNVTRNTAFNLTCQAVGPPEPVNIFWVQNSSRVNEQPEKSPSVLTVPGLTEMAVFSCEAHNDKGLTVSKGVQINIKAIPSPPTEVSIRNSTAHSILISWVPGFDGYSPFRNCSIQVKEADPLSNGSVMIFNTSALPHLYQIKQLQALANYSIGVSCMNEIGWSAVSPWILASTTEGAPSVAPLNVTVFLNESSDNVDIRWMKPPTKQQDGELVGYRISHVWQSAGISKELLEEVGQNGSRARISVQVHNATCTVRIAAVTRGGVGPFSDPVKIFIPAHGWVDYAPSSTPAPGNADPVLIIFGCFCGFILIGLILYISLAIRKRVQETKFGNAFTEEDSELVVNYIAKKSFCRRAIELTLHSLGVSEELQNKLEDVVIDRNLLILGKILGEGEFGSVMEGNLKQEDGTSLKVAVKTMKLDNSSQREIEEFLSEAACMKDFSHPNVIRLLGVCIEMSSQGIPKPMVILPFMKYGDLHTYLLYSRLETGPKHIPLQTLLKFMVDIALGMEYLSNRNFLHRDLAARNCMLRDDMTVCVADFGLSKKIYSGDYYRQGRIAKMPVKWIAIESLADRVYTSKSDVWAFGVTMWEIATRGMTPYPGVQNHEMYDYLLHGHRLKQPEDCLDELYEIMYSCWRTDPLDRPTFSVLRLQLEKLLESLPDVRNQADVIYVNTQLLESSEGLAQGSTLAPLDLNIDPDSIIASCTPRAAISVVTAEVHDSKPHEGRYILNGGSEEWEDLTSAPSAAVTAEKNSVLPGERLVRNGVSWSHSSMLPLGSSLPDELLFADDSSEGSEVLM

[5] = target: T2, Discoidin domain-containing receptor 2 (Homo sapiens) (UniProt Q16832); assay: Inhibition of DDR2 (unknown origin) assessed as residual activity at 100 nM by KINOMEscan analysis relative to control
T2 sequence (whole entry): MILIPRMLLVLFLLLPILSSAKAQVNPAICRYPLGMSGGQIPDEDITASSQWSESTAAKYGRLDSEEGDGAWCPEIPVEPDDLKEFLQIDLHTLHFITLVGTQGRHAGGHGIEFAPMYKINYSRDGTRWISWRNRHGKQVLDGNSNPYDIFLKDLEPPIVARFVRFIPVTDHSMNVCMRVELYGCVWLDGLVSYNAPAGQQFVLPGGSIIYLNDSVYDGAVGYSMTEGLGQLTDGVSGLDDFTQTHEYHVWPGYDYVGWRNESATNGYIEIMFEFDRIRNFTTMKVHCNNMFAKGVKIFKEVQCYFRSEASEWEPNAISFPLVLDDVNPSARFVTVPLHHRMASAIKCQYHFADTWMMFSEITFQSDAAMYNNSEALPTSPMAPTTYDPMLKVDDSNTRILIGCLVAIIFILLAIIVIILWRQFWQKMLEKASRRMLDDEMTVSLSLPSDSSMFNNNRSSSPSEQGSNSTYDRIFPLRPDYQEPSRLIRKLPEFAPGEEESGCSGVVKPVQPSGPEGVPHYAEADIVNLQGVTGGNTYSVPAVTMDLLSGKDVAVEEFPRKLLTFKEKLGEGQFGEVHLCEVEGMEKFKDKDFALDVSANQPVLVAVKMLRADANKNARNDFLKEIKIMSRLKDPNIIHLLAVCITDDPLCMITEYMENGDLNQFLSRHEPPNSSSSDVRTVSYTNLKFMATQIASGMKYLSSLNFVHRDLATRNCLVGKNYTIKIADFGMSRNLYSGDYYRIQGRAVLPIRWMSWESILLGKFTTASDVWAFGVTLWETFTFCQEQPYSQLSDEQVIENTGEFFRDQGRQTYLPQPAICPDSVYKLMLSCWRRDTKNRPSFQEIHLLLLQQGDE

[6] = tested on: Mast/stem cell growth factor receptor Kit (Homo sapiens), P10721 [D816H]; assay: Inhibition of KIT D816H mutant (unknown origin) assessed as residual activity at 100 nM by KINOMEscan analysis relative to control
Sequence of Mast/stem cell growth factor receptor Kit (Homo sapiens), P10721 [D816H] (P10721 whole entry D816H): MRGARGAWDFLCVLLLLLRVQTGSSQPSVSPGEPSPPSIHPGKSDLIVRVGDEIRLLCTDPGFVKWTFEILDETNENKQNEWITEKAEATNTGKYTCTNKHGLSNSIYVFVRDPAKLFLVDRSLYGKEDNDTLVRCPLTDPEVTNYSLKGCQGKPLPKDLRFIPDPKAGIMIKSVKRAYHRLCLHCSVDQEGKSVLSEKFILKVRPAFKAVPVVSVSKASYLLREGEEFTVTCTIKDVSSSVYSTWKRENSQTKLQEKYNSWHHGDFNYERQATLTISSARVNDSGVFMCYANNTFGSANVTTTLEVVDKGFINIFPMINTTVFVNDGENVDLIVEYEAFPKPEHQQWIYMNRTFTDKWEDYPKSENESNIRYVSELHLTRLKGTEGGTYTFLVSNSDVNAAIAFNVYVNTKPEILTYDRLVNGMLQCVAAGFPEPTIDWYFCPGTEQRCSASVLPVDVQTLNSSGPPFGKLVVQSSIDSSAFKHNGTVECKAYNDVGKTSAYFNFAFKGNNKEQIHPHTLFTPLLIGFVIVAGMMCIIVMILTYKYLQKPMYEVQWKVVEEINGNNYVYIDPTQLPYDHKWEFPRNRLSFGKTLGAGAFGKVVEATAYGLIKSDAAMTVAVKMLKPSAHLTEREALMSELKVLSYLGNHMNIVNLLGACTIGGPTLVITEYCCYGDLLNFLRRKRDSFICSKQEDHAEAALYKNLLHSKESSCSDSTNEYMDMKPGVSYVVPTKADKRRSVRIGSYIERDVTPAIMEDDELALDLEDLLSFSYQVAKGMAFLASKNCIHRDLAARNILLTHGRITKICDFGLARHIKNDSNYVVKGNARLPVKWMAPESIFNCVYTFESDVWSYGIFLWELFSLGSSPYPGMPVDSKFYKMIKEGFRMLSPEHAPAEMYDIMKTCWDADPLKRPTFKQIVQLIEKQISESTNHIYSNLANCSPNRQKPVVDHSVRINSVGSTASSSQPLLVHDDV

Sequence of Serine/threonine-protein kinase 32A (Homo sapiens) (Q8WU08 whole entry): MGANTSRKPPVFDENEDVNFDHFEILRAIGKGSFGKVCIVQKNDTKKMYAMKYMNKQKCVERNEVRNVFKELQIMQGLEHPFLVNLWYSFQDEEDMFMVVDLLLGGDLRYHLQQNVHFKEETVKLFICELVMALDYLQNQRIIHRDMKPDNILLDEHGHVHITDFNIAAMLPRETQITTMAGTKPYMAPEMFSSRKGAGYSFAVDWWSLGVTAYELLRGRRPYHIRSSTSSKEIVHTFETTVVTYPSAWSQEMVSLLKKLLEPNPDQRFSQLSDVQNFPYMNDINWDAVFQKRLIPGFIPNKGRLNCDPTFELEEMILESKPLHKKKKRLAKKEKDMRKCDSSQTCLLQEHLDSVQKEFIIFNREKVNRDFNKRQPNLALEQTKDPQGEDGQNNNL
Sequence of RAC-alpha serine/threonine-protein kinase (Homo sapiens) (P31749 whole entry): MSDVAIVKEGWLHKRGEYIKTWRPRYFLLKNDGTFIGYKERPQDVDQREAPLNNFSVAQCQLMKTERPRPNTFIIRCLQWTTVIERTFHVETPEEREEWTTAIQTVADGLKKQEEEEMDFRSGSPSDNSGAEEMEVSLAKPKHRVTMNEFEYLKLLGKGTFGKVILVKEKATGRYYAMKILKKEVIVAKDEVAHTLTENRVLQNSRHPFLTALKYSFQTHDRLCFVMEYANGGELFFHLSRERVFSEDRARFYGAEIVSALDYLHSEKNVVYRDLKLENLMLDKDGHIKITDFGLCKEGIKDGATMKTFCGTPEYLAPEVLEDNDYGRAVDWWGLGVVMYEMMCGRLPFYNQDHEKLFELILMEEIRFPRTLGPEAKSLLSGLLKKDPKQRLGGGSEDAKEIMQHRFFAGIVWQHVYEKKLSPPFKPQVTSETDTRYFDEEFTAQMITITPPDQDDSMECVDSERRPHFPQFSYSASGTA
Sequence of 1-phosphatidylinositol 3-phosphate 5-kinase (Homo sapiens) (Q9Y2I7 whole entry): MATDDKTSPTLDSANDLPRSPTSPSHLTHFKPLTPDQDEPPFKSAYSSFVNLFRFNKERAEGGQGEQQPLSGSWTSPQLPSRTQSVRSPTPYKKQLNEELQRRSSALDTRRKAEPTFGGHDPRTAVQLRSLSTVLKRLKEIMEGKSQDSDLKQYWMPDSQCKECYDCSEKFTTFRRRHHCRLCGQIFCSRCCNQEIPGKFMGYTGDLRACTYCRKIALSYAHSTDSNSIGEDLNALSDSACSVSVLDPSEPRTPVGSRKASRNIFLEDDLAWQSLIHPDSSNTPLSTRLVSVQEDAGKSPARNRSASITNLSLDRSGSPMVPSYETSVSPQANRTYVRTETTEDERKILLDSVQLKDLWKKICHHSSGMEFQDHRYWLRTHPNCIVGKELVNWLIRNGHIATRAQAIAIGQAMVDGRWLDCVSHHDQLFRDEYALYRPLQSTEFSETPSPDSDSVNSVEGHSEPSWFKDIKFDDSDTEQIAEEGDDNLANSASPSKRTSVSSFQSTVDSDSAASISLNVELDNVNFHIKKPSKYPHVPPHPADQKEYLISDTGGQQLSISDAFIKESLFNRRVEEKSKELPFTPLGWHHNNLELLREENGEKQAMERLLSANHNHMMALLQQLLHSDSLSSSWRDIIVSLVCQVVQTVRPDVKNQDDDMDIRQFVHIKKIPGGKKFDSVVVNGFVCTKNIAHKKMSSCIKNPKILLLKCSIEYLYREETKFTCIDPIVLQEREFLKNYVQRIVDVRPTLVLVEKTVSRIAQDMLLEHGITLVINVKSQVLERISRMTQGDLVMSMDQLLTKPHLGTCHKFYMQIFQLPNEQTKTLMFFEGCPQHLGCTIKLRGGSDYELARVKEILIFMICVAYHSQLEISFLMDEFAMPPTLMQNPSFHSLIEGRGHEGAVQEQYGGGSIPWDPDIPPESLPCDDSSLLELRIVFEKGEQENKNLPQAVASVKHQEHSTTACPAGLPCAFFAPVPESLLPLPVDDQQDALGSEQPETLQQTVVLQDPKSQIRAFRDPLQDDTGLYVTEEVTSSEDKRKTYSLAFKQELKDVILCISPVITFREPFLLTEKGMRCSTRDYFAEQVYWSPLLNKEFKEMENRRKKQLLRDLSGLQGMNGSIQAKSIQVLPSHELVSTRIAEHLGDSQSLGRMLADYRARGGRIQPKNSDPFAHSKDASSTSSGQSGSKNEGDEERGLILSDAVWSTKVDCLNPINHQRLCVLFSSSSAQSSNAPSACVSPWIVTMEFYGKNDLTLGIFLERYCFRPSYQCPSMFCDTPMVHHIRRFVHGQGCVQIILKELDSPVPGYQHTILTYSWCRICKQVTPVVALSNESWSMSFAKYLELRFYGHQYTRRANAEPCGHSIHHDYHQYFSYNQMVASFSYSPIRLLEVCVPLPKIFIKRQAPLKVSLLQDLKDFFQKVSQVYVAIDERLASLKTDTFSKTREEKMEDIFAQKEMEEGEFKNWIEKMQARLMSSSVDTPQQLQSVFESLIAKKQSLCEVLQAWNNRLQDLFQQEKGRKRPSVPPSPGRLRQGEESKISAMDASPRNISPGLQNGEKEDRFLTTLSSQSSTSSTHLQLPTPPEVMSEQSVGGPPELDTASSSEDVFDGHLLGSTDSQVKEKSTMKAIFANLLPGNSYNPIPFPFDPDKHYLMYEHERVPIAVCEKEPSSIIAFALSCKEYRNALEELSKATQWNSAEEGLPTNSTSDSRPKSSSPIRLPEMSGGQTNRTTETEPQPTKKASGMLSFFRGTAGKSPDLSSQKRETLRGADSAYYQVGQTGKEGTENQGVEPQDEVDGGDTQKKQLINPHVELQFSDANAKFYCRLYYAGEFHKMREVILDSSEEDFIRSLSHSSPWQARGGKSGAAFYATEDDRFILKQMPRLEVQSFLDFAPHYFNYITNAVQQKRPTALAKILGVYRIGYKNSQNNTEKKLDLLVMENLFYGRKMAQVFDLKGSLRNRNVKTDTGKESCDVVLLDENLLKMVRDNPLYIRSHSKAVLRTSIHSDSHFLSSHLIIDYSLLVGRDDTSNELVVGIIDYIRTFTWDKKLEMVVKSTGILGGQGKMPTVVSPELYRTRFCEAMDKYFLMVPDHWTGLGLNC

SMILES | Activity [1] [%] | Activity [2] [%] | Activity [3] [%] | Activity [4] [%] | Activity [5] [%] | Activity [6] [%]
COc1cc2nc(C)nc(N[C@H](C)c3cccc(-c4cn[nH]c4)c3)c2cc1OC | 68 | – | – | – | – | –
COc1cc2ncnc(N[C@H](C)c3cccc4ccccc34)c2cc1OC | – | 61 | 79 | 97 | 67 | 89
